Laboratory results from patent US20260207623A1, “USE OF ESTETROL IN HEPATICALLY IMPAIRED PATIENTS” (ESTETRA SRL, priority 2022, published 2026).

Experiment: Phase 1 pharmacokinetic study of a single oral dose of 20 mg E4 monohydrate in female subjects with normal hepatic function and mild, moderate or severe hepatic impairment (plasma, LC-MS/MS, non-compartmental analysis)
Format: in vivo, human
Details: for AUC0-24 h, GM / AUC0-24 h, Mean / AUC0-24 h, Median / AUCinf, GM / AUCinf, Mean / AUCinf, Median / AUClast, GM / AUClast, Mean / AUClast, Median / Cmax, GM / Cmax, Mean / Cmax, Median / T1/2, GM / T1/2, Mean / T1/2, Median / Tmax, Median / λz, GM / λz, Mean / λz, Median: single oral dose 20 mg E4 monohydrate, plasma
Protocol: This was a Phase 1, multi-centre, open-label, PK, and safety study of a single oral dose of 20 mg E4 monohydrate in female subjects with normal hepatic function (Group 1), mild hepatic impairment (Group 2), moderate hepatic impairment (Group 3), and severe hepatic impairment (Group 4), as defined using the Child-Pugh classification at Screening.
The study consisted of an eligibility Screening period (within 28 days prior to study drug administration), an Assessment Period with in-house period and outpatient visits (including a single oral dose of 20 mg E4 on Day 1), and a follow up visit. All subjects were confined to the study site from Day-1 (the day before dosing) until Day 4 and returned to the site every day from Day 5 to Day 9. Alternatively, the subjects could stay for a prolonged in-house period in agreement with the Investigator. The follow-up visit occurred on Day 14 (+2 days).
All subjects arrived at the study site in the morning of Day-1 in a fasted state (no food for at least 8 h, water was allowed) to have the scheduled assessments performed in order to confirm eligibility as outlined in the inclusion and exclusion criteria (Section 2.3.1 and Section 2.3.2, respectively). In the morning of Day 1 following an overnight fast, the subjects received oral dosing of 20 mg E4 monohydrate and remained at the site. Study-related assessments were performed at time points indicated in the Schedule of Assessments in Table 2.
Serial blood sampling for PK assessments started on Day 1 and proceeded until Day 9 according to the Pharmacokinetic Sampling Schedule presented in Table 3.
Each enrolled subject was to receive a single oral dose of 20 mg of E4 (estetrol) as monohydrate as a film-coated tablet.
Study drug was administered to subjects in the morning after an overnight fast of at least 8 h.
Calculation of non-compartmental PK parameters were done using WinNonlin™ Professional, Version 6.3 or higher.
The primary PK parameters to be analyzed for E4 in plasma: • Cmax=maximum observed plasma concentration • AUCinf=area under the concentration-time curve (AUC) from time zero extrapolated to infinity
The analysis of E4 and the metabolites E4-3-glucuronide and E4-16-glucuronide in plasma samples were performed at the Bioanalytical Laboratory of the CRO using a validated liquid chromatography-mass spectrometry/mass spectrometry method.
Individual and mean plasma concentrations at each sampling time point for E4 are presented by listings and descriptive summary statistics including means, geometric means (GMs), medians, ranges, standard deviations (SD) and coefficients of variation (CV). Individual, mean and/or median concentrations per hepatic function group were plotted versus time on semilogarithmic scales.
PK parameters were calculated by non-compartmental analysis. PK parameters were analysed using descriptive statistics and are presented by hepatic function group.
Analysis of variance (ANOVA) were used to compare primary PK parameters of E4 (Cmax and AUCinf) between subjects with hepatic impairment and subjects with normal hepatic function in an exploratory approach, using the log-transformed value of each PK parameter as dependent variable, and the hepatic impairment group (normal, mild, moderate, and severe) as a fixed classification factor. Geometric least squares means were used to calculate the ratios of primary PK parameters for each hepatic impairment group to those in the control group, along with 90% confidence intervals (CIs).
Additionally, the impact of age and BMI on the effect of hepatic impairment were evaluated using an ANOVA model similar as the ANOVA model described above, but with the interaction between each factor and the hepatic impairment group included as an additional factor.
The relationship between log-transformed PK parameters (Cmax and AUCinf) and continuous parameters (albumin, total bilirubin, and prothrombin time) used for the Child-Pugh score was explored by a linear regression approach. […]

AUC0-24 h, GM (Mild hepatic impairment): 315.86 ng·h/mL | AUC0-24 h, Mean (Mild hepatic impairment): 322.40 ng·h/mL | AUC0-24 h, Median (Mild hepatic impairment): 302.66 ng·h/mL | AUCinf, GM (Mild hepatic impairment): 497.24 ng·h/mL | AUCinf, Mean (Mild hepatic impairment): 506.96 ng·h/mL | AUCinf, Median (Mild hepatic impairment): 483.73 ng·h/mL | AUClast, GM (Mild hepatic impairment): 473.28 ng·h/mL | AUClast, Mean (Mild hepatic impairment): 483.07 ng·h/mL | AUClast, Median (Mild hepatic impairment): 440.22 ng·h/mL | Cmax, GM (Mild hepatic impairment): 113.610 ng/mL | Cmax, Mean (Mild hepatic impairment): 118.113 ng/mL | Cmax, Median (Mild hepatic impairment): 114.000 ng/mL | T1/2, GM (Mild hepatic impairment): 23.130 h | T1/2, Mean (Mild hepatic impairment): 24.540 h | T1/2, Median (Mild hepatic impairment): 24.692 h | Tmax, Median (Mild hepatic impairment): 0.490 h | λz, GM (Mild hepatic impairment): 0.0300 h⁻¹ | λz, Mean (Mild hepatic impairment): 0.0318 h⁻¹ | λz, Median (Mild hepatic impairment): 0.0281 h⁻¹ | AUC0-24 h, GM (Moderate hepatic impairment): 269.04 ng·h/mL | AUC0-24 h, Mean (Moderate hepatic impairment): 282.87 ng·h/mL | AUC0-24 h, Median (Moderate hepatic impairment): 299.08 ng·h/mL | AUCinf, GM (Moderate hepatic impairment): 363.25 ng·h/mL | AUCinf, Mean (Moderate hepatic impairment): 388.13 ng·h/mL | AUCinf, Median (Moderate hepatic impairment): 412.85 ng·h/mL | AUClast, GM (Moderate hepatic impairment): 311.58 ng·h/mL | AUClast, Mean (Moderate hepatic impairment): 336.84 ng·h/mL | AUClast, Median (Moderate hepatic impairment): 325.82 ng·h/mL | Cmax, GM (Moderate hepatic impairment): 111.990 ng/mL | Cmax, Mean (Moderate hepatic impairment): 122.863 ng/mL | Cmax, Median (Moderate hepatic impairment): 133.000 ng/mL | T1/2, GM (Moderate hepatic impairment): 14.390 h | T1/2, Mean (Moderate hepatic impairment): 17.084 h | T1/2, Median (Moderate hepatic impairment): 14.153 h | Tmax, Median (Moderate hepatic impairment): 1 h | λz, GM (Moderate hepatic impairment): 0.0500 h⁻¹ | λz, Mean (Moderate hepatic impairment): 0.0560 h⁻¹ | λz, Median (Moderate hepatic impairment): 0.0502 h⁻¹ | AUC0-24 h, GM (Normal hepatic function): 279.86 ng·h/mL | AUC0-24 h, Mean (Normal hepatic function): 290.53 ng·h/mL | AUC0-24 h, Median (Normal hepatic function): 309.09 ng·h/mL | AUCinf, GM (Normal hepatic function): 458.11 ng·h/mL | AUCinf, Mean (Normal hepatic function): 485.88 ng·h/mL | AUCinf, Median (Normal hepatic function): 495.16 ng·h/mL | AUClast, GM (Normal hepatic function): 446.22 ng·h/mL | AUClast, Mean (Normal hepatic function): 474.51 ng·h/mL | AUClast, Median (Normal hepatic function): 485.66 ng·h/mL | Cmax, GM (Normal hepatic function): 68.240 ng/mL | Cmax, Mean (Normal hepatic function): 73.238 ng/mL | Cmax, Median (Normal hepatic function): 70.100 ng/mL | T1/2, GM (Normal hepatic function): 19.540 h | T1/2, Mean (Normal hepatic function): 20.112 h | T1/2, Median (Normal hepatic function): 18.583 h | Tmax, Median (Normal hepatic function): 0.500 h | λz, GM (Normal hepatic function): 0.0400 h⁻¹ | λz, Mean (Normal hepatic function): 0.0364 h⁻¹ | λz, Median (Normal hepatic function): 0.0373 h⁻¹ | AUC0-24 h, GM (Severe hepatic impairment): 299.07 ng·h/mL | AUC0-24 h, Mean (Severe hepatic impairment): 314.97 ng·h/mL | AUC0-24 h, Median (Severe hepatic impairment): 264.88 ng·h/mL | AUCinf, GM (Severe hepatic impairment): 332.77 ng·h/mL | AUCinf, Mean (Severe hepatic impairment): 367.42 ng·h/mL | AUCinf, Median (Severe hepatic impairment): 305.49 ng·h/mL | AUClast, GM (Severe hepatic impairment): 325.76 ng·h/mL | AUClast, Mean (Severe hepatic impairment): 360.81 ng·h/mL | AUClast, Median (Severe hepatic impairment): 296.24 ng·h/mL | Cmax, GM (Severe hepatic impairment): 93.970 ng/mL | Cmax, Mean (Severe hepatic impairment): 96.250 ng/mL | Cmax, Median (Severe hepatic impairment): 91.550 ng/mL | T1/2, GM (Severe hepatic impairment): 7.710 h | T1/2, Mean (Severe hepatic impairment): 8.652 h | T1/2, Median (Severe hepatic impairment): 6.277 h | Tmax, Median (Severe hepatic impairment): 0.510 h | λz, GM (Severe hepatic impairment): 0.0900 h⁻¹ | λz, Mean (Severe hepatic impairment): 0.1005 h⁻¹ | λz, Median (Severe hepatic impairment): 0.1104 h⁻¹ | time to primary peak of GM plasma concentrations (all groups): ≤ 1 h | Tmax was reached within (mild hepatic impairment): ≤ 2 h | time post dose until which concentrations remained above LLOQ in at least half of the subjects (mild hepatic impairment): 96 h | Tmax was reached within (moderate hepatic impairment): ≤ 2 h | time post dose until which concentrations remained above LLOQ in at least half of the subjects (moderate hepatic impairment): 48 h | time post dose until which concentrations remained above LLOQ in at least half of the subjects (normal hepatic function): 96 h | Tmax was reached within (normal hepatic function (due to an outlier)): ~ 6 h | Tmax was reached within (severe hepatic impairment): ≤ 1 h | time post dose until which concentrations remained above LLOQ in at least half of the subjects (severe hepatic impairment): 36 h
Structure (SMILES): CC12CCC3c4ccc(OC5OC(C(=O)O)C(O)C(O)C5O)cc4CCC3C1C(O)C(O)C2O (stereo not shown) [E4-3-glucuronide, estetrol-3-glucuronide]
